According to US11806359B2 (priority 2020, dated 2023):

Assays:
[1] = In vitro cellular assay for release of lactate dehydrogenase; type: cell-based
Description: Proof of the safety of the oleandrin-containing composition was further provided by in vitro cellular assay for determining the release of lactate dehydrogenase after exposure of said cells to solutions containing different concentrations of oleandrin. It was determined that up to concentrations of 1 microg/mL, there was no additional toxicity over control vehicle.

Marburgvirus (MARV/Ci67) = type: cell-based; conditions: based on the oleandrin content; final concentration of compositions 20 microg/mL
huPBMCs = assay: Cytotoxicity/apoptosis in primary huPBMCs, Annexin V-FITC/PI staining; type: cell-based, human; conditions: compared to the vehicle control, 72 hrs
Description: Primary buffy-coat huPBMCs were isolated and stimulated with phytohemagglutinin (PHA) and cultured in the presence of recombinant human interleukin-2 (hIL-2). The cells were then treated for 72 hrs with increasing concentrations of oleandrin or a N. oleander extract, or with increasing volumes of the Vehicle. The samples were subsequently stained with Annexin V-FITC and PI and the relative percentages of apoptotic (i.e., Annexin V-FITC and/or PI-positive) cells per field were quantified by confocal fluorescence-microscopy and counting in-triplicate.
Cytotoxic effects of the Vehicle control, N. oleander extract, and the oleandrin compound were assessed by treating primary huPBMCs for 72 hrs, and then the cultures were stained with Annexin V-FITC and PI. The relative percentages of apoptotic (i.e., Annexin V-FITC and/or PI-positive) cells were quantified by fluorescence-microscopy and counting triplicate visual fields using a 20× objective lens. The total numbers of cells were determined using DIC phase-contrast microscopy. Cyclophosphamide (50 μM)-treated cells were included as a positive control for apoptosis. NA indicates the number of cells in this sample was too low for accurate assessment due to higher toxicity. […]

SARS-CoV-2 [2] = assay: SARS-CoV-2 treatment post-infection in VERO CCL-81 cells, viral titer (Example 34); type: cell-based; conditions: treated at 12 h and 24 h post-infection, no pretreatment
[3] = test system: HTLV-1+ SLB1 lymphoma T-cell-line; assay: Cytotoxicity/apoptosis in HTLV-1+ SLB1 cells, Annexin V-FITC/PI staining; type: cell-based; conditions: 72 hrs
Description: SLB1 T-cells were treated with increasing concentrations (10, 50, and 100 μg/ml) of oleandrin or a N. oleander extract for 72 hrs as described herein. As a negative control, the cells were also treated with increasing amounts (1.5, 7.5, and 15 μg) of the vehicle solution which corresponded to the volumes used in the drug-treated cultures. Cyclophosphamide (50 μM; Sigma-Aldrich)-treated cells were included as a positive control for apoptosis. Then, the samples were washed and stained with Annexin V-FITC and propidium iodide (PI) and analyzed by confocal fluorescence-microscopy. The relative percentages of Annexin V-FITC and/or PI-positive cells were quantified by fluorescence-microscopy and counting triplicate visual fields using a 20× objective lens.
To assess the relative cytotoxicity of the oleandrin compound, extract of N. oleander, or the Vehicle control in treated cell cultures, 2×10^4 HTLV-1+ SLB1 lymphoma T-cells or activated/cultured huPBMCs were plated in 300 μl of complete medium, supplemented with antibiotics, and maintained at 37.0 under 10% CO2 in a humidified incubator. The cultures were treated with either increasing concentrations (10, 50, and 100 μg/ml) of oleandrin or N. oleander extract, or the Vehicle control ([…]) and incubated for 72 hrs. […] The total numbers of cells per field were quantified by microscopy using a DIC phase-contrast filter.

Vero-E6 cells = conditions: African green monkey
HIV-1 = conditions: cited from earlier work
adenovirus = assay: Antiviral activity against adenovirus; type: cell-based
SARS-CoV-2 [4] = assay: Direct antiviral activity against SARS-CoV-2, percent infected cells by immunostaining (Example 29); type: cell-based
Description: The results are depicted in FIGS. 24A and 24B. […] Potential methods of action include inhibition of viral replication, assembly, and/or egress.
Growth media was removed from confluent monolayers of approximately 10^6 Vero CCL81 cells in 6-well plates. Oleandrin was serially diluted in culture media and added to […]. The growth media was replaced with 200 μl of maintenance media containing either 1.0 μg/ml, 0.5 μg/ml, 100 ng/ml, 50 ng/ml, 10 ng/ml, or 5 ng/ml oleandrin, or matched DMSO-only controls. The plates were incubated at 37° C. for about 30 minutes prior to addition of virus.
SARS-CoV-2 virus was added to Oleandrin treated cells and untreated cells at a MOI (multiplicity of infection) of 0.4 (entry assay) or 0.02 (replication assay). Oleandrin remained in the wells during a 1 hr incubation at 37° C.
After 1 hr absorption, inoculation media was removed and washed 1 time with PBS (standard phosphate buffer saline).
Media alone (no oleandrin) was added back to oleandrin-treated wells designated as “Pretreatment” on data slides. Media with indicated concentrations of oleandrin was added back to wells designated as “Duration” on data slides.
Plates were fixed at either 24 (entry assay) or 48 (replication assay) hours post-infection and immunostained with virus-specific antibody and fluorescently labeled secondary antibody.
Cells were imaged using an Operetta and data was analyzed using custom algorithms in Harmonia software to determine the percent of infected cells in each well.

HTLV-1 = assay: Virological synapse formation and HTLV-1 transmission, SLB1/pLenti-GFP with huPBMCs, fluorescence microscopy; type: cell-based, human T-cell leukemia virus type-1; conditions: in vitro co-culture

CO[C@H]1C[C@H](O[C@H]2CC[C@@]3(C)[C@H](CC[C@@H]4[C@@H]3CC[C@]3(C)[C@@H](C5=CC(=O)OC5)[C@@H](OC(C)=O)C[C@]43O)C2)O[C@@H](C)[C@@H]1O [oleandrin]
concentration up to which no additional toxicity over control vehicle [1]: ≤ 1000 ng/mL | efficacy against Marburgvirus (Marburgvirus (MARV/Ci67)): efficacious | cytotoxicity in huPBMCs (huPBMCs): moderate cytotoxicity | antiviral activity post infection with a single treatment (SARS-CoV-2 [2]): able to exert antiviral activity | cytotoxicity/apoptosis at the lowest concentration ([3]; 10 μg/ml): did not induce significant cytotoxicity/apoptosis | cytotoxicity compared with the Vehicle control ([3]; treated HTLV-1+ SLB1 cells): not significantly higher than the Vehicle control | concentration at which cellular toxicity appeared (Vero-E6 cells): ≥ 1000 ng/mL | Vero cells remaining viable (Vero-E6 cells; 24 h): about 80% | anti-viral activity against HIV-1 (HIV-1): anti-HIV activity | activity against adenovirus (adenovirus): insufficiently active | antiviral activity (SARS-CoV-2 [4]; 48-h, oleandrin only during the absorption phase (Pre-treatment data)): minimal antiviral activity | viral infection (SARS-CoV-2 [4]; 48-h, treated for the duration of the assay): significantly limited viral infection | virus entry and/or viral replication (SARS-CoV-2 [4]; 24 h, treated for the duration of the assay): significantly limited virus entry and/or viral replication | formation of virological synapses and transmission of HTLV-1 (HTLV-1): inhibited the formation of virological synapses and the transmission of HTLV-1
